Assay results reported in patent US9040519B2, “Fused tetracyclic pyrido [4,3-B] indole and pyrido [3,4-B] indole derivatives and methods of use” (Medivation Technologies, Inc., priority 2010, dated 2015).

Legend:
[1] = target: T1, human recombinant histamine H1 receptor (Homo sapiens, UniProt P35367); experiment: Histamine H1 radioligand binding ([3H]Pyrilamine); settings: compound at 1 μM, 1.2 nM [3H]Pyrilamine, CHO K1 cells; for inhibition at 1 µM: read-out: Histamine H1 Binding (1 μM), percentage inhibition
T1 construct: expressed in transfected cells; host or cells: CHO-K1
T1 sequence (P35367 whole entry): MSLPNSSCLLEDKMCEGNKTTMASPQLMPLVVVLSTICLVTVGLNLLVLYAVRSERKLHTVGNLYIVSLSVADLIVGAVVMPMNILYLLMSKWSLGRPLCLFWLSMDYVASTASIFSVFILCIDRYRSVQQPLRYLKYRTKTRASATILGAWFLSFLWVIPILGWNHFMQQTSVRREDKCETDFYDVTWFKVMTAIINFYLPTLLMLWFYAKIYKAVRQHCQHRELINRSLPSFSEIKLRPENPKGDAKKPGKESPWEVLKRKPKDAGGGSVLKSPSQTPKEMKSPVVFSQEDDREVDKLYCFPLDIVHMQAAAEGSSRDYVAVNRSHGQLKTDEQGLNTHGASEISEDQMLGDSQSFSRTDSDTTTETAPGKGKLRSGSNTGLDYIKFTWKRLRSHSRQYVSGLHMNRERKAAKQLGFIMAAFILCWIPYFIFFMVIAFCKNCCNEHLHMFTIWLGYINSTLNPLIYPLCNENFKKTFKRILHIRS
Protocol: To evaluate in radioligand binding assays the activity of compounds of the invention, human recombinant histamine H1 receptor expressed in Chinese hamster ovary (CHO) K1 cells (De Backer, M. et al, Biochem. Biophys. Res. Comm. 197(3):1601, 1993) in a modified Tris-HCl buffer (50 mM Tris-HCl, pH 7.4, 2 mM MgCl2, 100 mM NaCl, 250 mM Sucrose) was used. Compounds of the invention were incubated with 1.2 nM [^3H]Pyrilamine for 180 min at 25° C. Non-specific binding was estimated in the presence of 1 μM Pyrilamine. Receptor proteins were filtered and washed, the filters were then counted to determine [^3H]Pyrilamine specifically bound. Compounds were screened at 1 μM or lower, using 1% DMSO as vehicle. Biochemical assay results are presented as the percent inhibition of specific binding in Table 2.

[2] = target: T2, human recombinant serotonin (5-Hydroxytryptamine) 5-HT2A receptor (Homo sapiens, UniProt P28223); experiment: Serotonin 5-HT2A radioligand binding ([3H]Ketanserin); settings: compound at 0.1 μM, CHO K1 cells; for inhibition at 0.1 µM: read-out: Percentage inhibition of ligand binding, Serotonin 5-HT2A
T2 construct: expressed in transfected cells; host or cells: CHO-K1
T2 sequence (P28223 whole entry): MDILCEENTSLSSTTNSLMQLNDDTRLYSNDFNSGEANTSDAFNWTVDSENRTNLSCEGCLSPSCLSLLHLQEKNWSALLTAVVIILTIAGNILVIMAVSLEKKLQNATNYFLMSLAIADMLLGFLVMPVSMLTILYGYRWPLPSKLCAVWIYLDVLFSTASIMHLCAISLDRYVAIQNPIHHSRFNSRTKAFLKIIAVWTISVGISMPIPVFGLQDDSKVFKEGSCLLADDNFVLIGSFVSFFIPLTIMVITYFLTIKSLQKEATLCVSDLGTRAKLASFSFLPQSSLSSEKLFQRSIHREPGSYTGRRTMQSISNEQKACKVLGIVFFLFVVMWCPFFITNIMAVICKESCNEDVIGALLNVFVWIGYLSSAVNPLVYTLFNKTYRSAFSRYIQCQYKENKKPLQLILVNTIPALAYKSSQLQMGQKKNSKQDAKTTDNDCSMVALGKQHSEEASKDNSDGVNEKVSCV
Protocol: To evaluate in radioligand binding assays the activity of compounds of the invention, human recombinant serotonin (5-Hydroxytryptamine) 5-HT2A receptor expressed in Chinese hamster ovary (CHO) K1 cells (Bonhaus, D. et al, Br. J. Pharmacol. 115:622, 1995; Saucier, C. et al, J. Neurochem. 68:1998, 1997) in a 50 mM Tris-HCl buffer, pH 7.4, was used. Compounds of the invention were incubated with 0.5 nM [^3H]Ketanserin for 60 min at 25° C. Non-specific binding was estimated in the presence of 1 μM Mianserin. Receptor proteins were filtered and washed, the filters were then counted to determine [^3H]Ketanserin specifically bound. Compounds were screened at 1 μM or lower, using 1% DMSO as vehicle. Biochemical assay results are presented as the percent inhibition of specific binding in Table 4.

[3] = target: T3, human recombinant dopamine D2L receptor (Homo sapiens, UniProt P14416); experiment: Dopamine D2L radioligand binding ([3H]Spiperone); settings: compound at 1 μM, CHO cells; for inhibition at 1 µM: read-out: Percentage inhibition of ligand binding, Dopamine D2L; for Percentage inhibition of ligand binding, Dopamine D2L: 1 µM
T3 construct: expressed in transfected cells; host or cells: CHO
T3 sequence (P14416 whole entry): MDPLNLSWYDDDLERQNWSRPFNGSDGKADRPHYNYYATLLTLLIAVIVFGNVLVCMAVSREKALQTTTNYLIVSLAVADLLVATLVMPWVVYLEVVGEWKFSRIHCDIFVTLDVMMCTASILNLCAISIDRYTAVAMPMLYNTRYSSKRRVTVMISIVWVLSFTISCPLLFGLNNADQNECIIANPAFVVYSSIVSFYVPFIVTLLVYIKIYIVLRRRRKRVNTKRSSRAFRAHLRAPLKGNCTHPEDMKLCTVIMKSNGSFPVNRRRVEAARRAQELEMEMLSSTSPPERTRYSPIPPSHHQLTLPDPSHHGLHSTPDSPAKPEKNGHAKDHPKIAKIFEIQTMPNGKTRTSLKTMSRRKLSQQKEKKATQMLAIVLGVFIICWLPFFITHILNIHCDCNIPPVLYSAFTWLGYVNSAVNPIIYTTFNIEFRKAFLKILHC
Protocol: To evaluate in radioligand binding assays the activity of compounds of the invention, human recombinant dopamine D2L receptor expressed in Chinese hamster ovary (CHO) cells (Grandy, D. et al, Proc. Natl. Acad. Sci. USA. 86:9762, 1989; Hayes, G. et al, Mol. Endocrinol. 6:920, 1992) in a modified Tris-HCl buffer (50 mM Tris-HCl, pH 7.4, 1.4 mM Ascorbic Acid, 0.001% BSA, 150 mM NaCl) was used. Compounds of the invention were incubated with 0.16 nM [^3H]Spiperone for 120 min at 25° C. Non-specific binding was estimated in the presence of 10 μM Haloperidol. Receptor proteins were filtered and washed, the filters were then counted to determine [^3H]Spiperone specifically bound. Compounds were screened at 1 μM or lower, using 1% DMSO as vehicle. Biochemical assay results are presented as the percent inhibition of specific binding in Table 3.

[4] = target: T4, human recombinant serotonin (5-Hydroxytryptamine) 5-HT2C receptor (Homo sapiens, UniProt P28335); experiment: Serotonin 5-HT2C radioligand binding ([3H]Mesulergine); settings: compound at 0.1 μM, CHO K1 cells; for inhibition at 0.1 µM: read-out: Percentage inhibition of ligand binding, Serotonin 5-HT2C
T4 construct: expressed in transfected cells; host or cells: CHO-K1
T4 sequence (P28335 33-458): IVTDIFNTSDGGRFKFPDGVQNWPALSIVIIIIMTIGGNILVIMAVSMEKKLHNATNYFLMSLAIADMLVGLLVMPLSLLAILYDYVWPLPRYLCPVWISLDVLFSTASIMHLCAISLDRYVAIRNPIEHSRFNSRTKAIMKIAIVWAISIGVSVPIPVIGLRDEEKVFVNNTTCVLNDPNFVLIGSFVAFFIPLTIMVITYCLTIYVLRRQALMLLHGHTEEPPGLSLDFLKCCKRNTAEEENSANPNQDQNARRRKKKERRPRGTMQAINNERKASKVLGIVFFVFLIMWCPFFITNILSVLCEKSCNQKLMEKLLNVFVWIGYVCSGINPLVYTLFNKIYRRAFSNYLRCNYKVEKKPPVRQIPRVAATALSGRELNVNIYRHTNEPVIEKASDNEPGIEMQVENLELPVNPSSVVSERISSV
Protocol: To evaluate in radioligand binding assays the activity of compounds of the invention, human recombinant serotonin (5-Hydroxytryptamine) 5-HT2C receptor expressed in Chinese hamster ovary (CHO) K1 cells (Wolf, W. et al, J. Neurochem. 69:1449, 1997) in a modified Tris-HCl buffer (50 mM Tris-HCl, pH 7.4, 0.1% Ascorbic Acid, 10 μM Pargyline) was used. Compounds of the invention were incubated with 1 nM [^3H]Mesulergine for 60 min at 25° C. Non-specific binding was estimated in the presence of 1 μM Mianserin. Receptor proteins were filtered and washed, the filters were then counted to determine [^3H]Mesulergine specifically bound. Compounds were screened at 1 μM or lower, using 1% DMSO as vehicle. Biochemical assay results are presented as the percent inhibition of specific binding in Table 4.

[5] = target: T5, human recombinant serotonin (5-Hydroxytryptamine) 5-HT6 receptor (Homo sapiens, UniProt P50406); experiment: Serotonin 5-HT6 radioligand binding ([3H]LSD); settings: compound at 0.1 μM, HeLa cells; for inhibition at 0.1 µM: read-out: Percentage inhibition of ligand binding, Serotonin 5-HT6; for Percentage inhibition of ligand binding, Serotonin 5-HT6: 0.1 µM
T5 construct: expressed in transfected cells; host or cells: HeLa
T5 sequence (P50406 whole entry): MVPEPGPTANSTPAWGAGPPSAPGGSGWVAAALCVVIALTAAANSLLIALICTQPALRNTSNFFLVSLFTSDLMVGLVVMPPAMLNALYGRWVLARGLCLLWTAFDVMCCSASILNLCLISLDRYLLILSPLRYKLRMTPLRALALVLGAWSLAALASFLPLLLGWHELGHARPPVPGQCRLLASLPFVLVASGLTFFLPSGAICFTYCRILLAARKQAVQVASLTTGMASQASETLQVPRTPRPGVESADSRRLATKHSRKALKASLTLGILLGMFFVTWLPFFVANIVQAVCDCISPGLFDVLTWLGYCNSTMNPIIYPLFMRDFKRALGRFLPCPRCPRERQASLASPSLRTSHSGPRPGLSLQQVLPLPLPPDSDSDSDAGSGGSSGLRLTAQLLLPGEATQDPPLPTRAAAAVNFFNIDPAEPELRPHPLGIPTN
Protocol: To evaluate in radioligand binding assays the activity of compounds of the invention, human recombinant serotonin (5-Hydroxytryptamine) 5-HT6 receptor expressed in human HeLa cells (Monsma, F. Jr. et al, Mol. Pharmacol. 43:320, 1993) in a modified Tris-HCl buffer (50 mM Tris-HCl, pH 7.4, 150 mM NaCl, 2 mM Ascorbic Acid, 0.001% BSA) was used. Compounds of the invention were incubated with 1.5 nM [3H]Lysergic acid diethylamide (LSD) for 120 min at 37° C. Non-specific binding was estimated in the presence of 5 μM Serotonin (5-HT). Receptor proteins were filtered and washed, the filters were then counted to determine [3H]LSD specifically bound. Compounds were screened at 1 μM or lower, using 1% DMSO as vehicle. Biochemical assay results are presented as the percent inhibition of specific binding in Table 4.

[6] = target: T6, human recombinant serotonin (5-Hydroxytryptamine) 5-HT7 receptor (Homo sapiens, UniProt P34969); experiment: Serotonin 5-HT7 radioligand binding ([3H]LSD); settings: compound at 0.1 μM, CHO cells; for inhibition at 0.1 µM: read-out: Percentage inhibition of ligand binding, Serotonin 5-HT7
T6 construct: expressed in transfected cells; host or cells: CHO
T6 sequence (P34969 whole entry): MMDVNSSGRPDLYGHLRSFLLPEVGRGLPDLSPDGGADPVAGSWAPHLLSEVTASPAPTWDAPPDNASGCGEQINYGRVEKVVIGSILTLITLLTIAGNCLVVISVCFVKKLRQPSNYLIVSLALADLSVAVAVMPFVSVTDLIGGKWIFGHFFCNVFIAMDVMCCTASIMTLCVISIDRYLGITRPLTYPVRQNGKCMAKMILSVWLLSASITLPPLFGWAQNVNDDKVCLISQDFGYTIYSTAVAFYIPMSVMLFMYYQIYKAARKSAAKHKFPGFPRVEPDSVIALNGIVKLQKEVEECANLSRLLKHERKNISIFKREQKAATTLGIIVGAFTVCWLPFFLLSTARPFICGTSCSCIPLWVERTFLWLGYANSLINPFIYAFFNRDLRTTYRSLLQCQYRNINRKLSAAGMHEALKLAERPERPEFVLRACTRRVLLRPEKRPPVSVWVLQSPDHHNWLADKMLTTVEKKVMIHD
Protocol: To evaluate in radioligand binding assays the activity of compounds of the invention, human recombinant serotonin (5-Hydroxytryptamine) 5-HT7 receptor expressed in Chinese hamster ovary (CHO) cells (Roth, B. et al, J. Pharmacol. Exp. Ther. 268:1403, 1994; Shen, Y. et al, J. Biol. Chem. 268:18200, 1993) in a modified Tris-HCl buffer (50 mM Tris-HCl, pH 7.4, 10 mM MgCl2, 0.5 mM EDTA) was used. Compounds of invention were incubated with 5.5 nM [^3H] Lysergic acid diethylamide (LSD) for 2 h at 25° C. Non-specific binding was estimated in the presence of 10 μM Serotonin (5-HT). Receptor proteins were filtered and washed, the filters were then counted to determine [^3H]LSD specifically bound. Compounds were screened at 1 μM or lower, using 1% DMSO as vehicle. Biochemical assay results are presented as the percent inhibition of specific binding in Table 4.

In the case of `Cc1ccc2c(c1)c1c3n2CCC(c2ccc(F)cc2)CC3(C)CN(C)C1` (stereo not drawn) [Compound 3], the inhibition at 1 µM [1] is reported as 78%, the inhibition at 0.1 µM [2] is reported as 45% and the inhibition at 1 µM [3] is reported as 22%. For the same compound, the inhibition at 0.1 µM [4] was 39%, the inhibition at 0.1 µM [5] was 10% and the inhibition at 0.1 µM [6] was 46%.
`Cc1ccc2c(c1)c1c3n2CC(c2ccc(F)cc2)=CCC3(C)CN(C)C1` (stereo not drawn) [Compound 1, 6-(4-fluoro-phenyl)-2,3a,10-trimethyl-1,2,3,3a,4,7-hexahydro-2,7a-diaza-cyclohepta[jk]fluorene] was tested, and the inhibition at 1 µM [1] was 11%, the inhibition at 0.1 µM [2] was 56% and the inhibition at 1 µM [3] was 12%. It also gave an inhibition at 0.1 µM [4] of 45%, an inhibition at 0.1 µM [5] of 8% and an inhibition at 0.1 µM [6] of 26%.
In the case of `Cc1ccc2c(c1)c1c3n2CC=C(c2ccc(F)cc2)CC3(C)CN(C)C1` (stereo not drawn) [Compound 5], the inhibition at 1 µM [1] is reported as 94%, the inhibition at 0.1 µM [2] is reported as 54% and the inhibition at 1 µM [3] is reported as 60%. It also gave an inhibition at 0.1 µM [4] of 32%, an inhibition at 0.1 µM [5] of 39% and an inhibition at 0.1 µM [6] of 35%.
`Cc1ccc2c(c1)c1c3n2CC(c2ccncc2)CC3(C)CN(C)C1` (stereo not drawn) [Compound 4] was tested, and the inhibition at 1 µM [1] was 12%, the inhibition at 0.1 µM [2] was 47% and the inhibition at 1 µM [3] was 14%. For the same compound, the inhibition at 0.1 µM [4] was 35%, the inhibition at 0.1 µM [5] was 6% and the inhibition at 0.1 µM [6] was 38%.
For `Cc1ccc2c(c1)c1c3n2CC(C)(c2ccncc2)OC(C)CC3(C)CN(C)C1` (stereo not drawn) [Compound 9], the inhibition at 1 µM [1] was 6%, the inhibition at 0.1 µM [2] was 87% and the inhibition at 1 µM [3] was 2%. For the same compound, the inhibition at 0.1 µM [4] was 73%, the inhibition at 0.1 µM [5] was 21% and the inhibition at 0.1 µM [6] was 57%.
With `Cc1ccc2c(c1)c1c3n2CC(c2ccc(F)cc2)CC3(C)CN(C)C1` (stereo not drawn) [Compound 2] the “Histamine H1 Binding (1 μM), percentage inhibition” value [1] was 63%, the “Percentage inhibition of ligand binding, Serotonin 5-HT2A” value ([2]; 0.1 µM) was 49% and the “Percentage inhibition of ligand binding, Dopamine D2L” value [3] was 13%. The “Percentage inhibition of ligand binding, Serotonin 5-HT2C” value ([4]; 0.1 µM) was 36%, the “Percentage inhibition of ligand binding, Serotonin 5-HT6” value [5] was 12% and the “Percentage inhibition of ligand binding, Serotonin 5-HT7” value ([6]; 0.1 µM) was 34%.
`Cc1ccc2c(c1)c1c3n2CC(c2ccc(F)cc2)CCC3(C)CN(C)C1` (stereo not drawn) [Compound 7, 6-(4-fluoro-phenyl)-2,3a,10-trimethyl-1,2,3,3a,4,5,6,7-octahydro-2,7a-diaza-cyclohepta[jk]fluorene] was tested, and the inhibition at 1 µM [1] was 19%, the inhibition at 0.1 µM [2] was 57% and the inhibition at 1 µM [3] was 0%. For the same compound, the inhibition at 0.1 µM [4] was 41%, the inhibition at 0.1 µM [5] was 6% and the inhibition at 0.1 µM [6] was 54%.
`Cc1ccc2c(c1)c1c3n2CC(c2ccc(F)cc2)CC3(C)CN(C)C1` (stereo not drawn) [Compound 6] was tested, and the inhibition at 1 µM [1] was 51%, the inhibition at 0.1 µM [2] was 54% and the “Percentage inhibition of ligand binding, Dopamine D2L” value [3] was 6%. For the same compound, the inhibition at 0.1 µM [4] was 38%, the “Percentage inhibition of ligand binding, Serotonin 5-HT6” value [5] was 35% and the inhibition at 0.1 µM [6] was 39%.
Work on `Cc1ccc2c(c1)c1c3n2CC(c2ccncc2)OC(C)CC3(C)CN(C)C1` (stereo not drawn) [Compound 8] yielded an inhibition at 1 µM [1] of 6%, an inhibition at 0.1 µM [2] of 68% and an inhibition at 1 µM [3] of 13%. For the same compound, the inhibition at 0.1 µM [4] was 54%, the inhibition at 0.1 µM [5] was 4% and the inhibition at 0.1 µM [6] was 55%.
